In patent US20200032271A1, “COMBINATION THERAPY WITH LIPOSOMAL ANTISENSE OLIGONUCLEOTIDES” (Bio-Path Holdings, Inc., priority 2016, published 2020):
Several values for one entry are separate records, joined by “and”; a condition that tells them apart may be missing. Equal values may be shown once. Marks after values point to notes of the source that are not given here. [PEt] = P-ethoxy (ethyl phosphotriester) internucleoside linkage

Assay: Adverse events in study 2003-0578 (NCI CTCAE grading)
[1] = patient 1, 5 mg/m^2 monotherapy
[2] = patient 10, 5 mg/m^2 monotherapy

## BP1001: liposome-incorporated P-ethoxy antisense oligodeoxynucleotide (5′-ATATTTGGCGATGGCTTC-3′, SEQ ID NO: 1) specific to grb2 mRNA, in neutral DOPC liposomes (DNA, all [PEt], methylation of C not given here; incorporated in neutral DOPC liposomes)
Monotherapy 60 mg/m^2 (n = 3)
  Blood and lymphatic system disorders ≥Grade 3, number of patients: 0
  Cardiac disorders ≥Grade 3, number of patients: 0
  Cataract ≥Grade 3, number of patients: 0
  Dyspnea ≥Grade 3, number of patients: 0
  Extremity Lower Edema ≥Grade 3, number of patients: 0
  Eye disorders ≥Grade 3, number of patients: 0
  Febrile neutropenia ≥Grade 3, number of patients: 0
  Gastrointestinal disorders ≥Grade 3, number of patients: 0
  General disorders and administration site conditions ≥Grade 3, number of patients: 0
  Hallucinations ≥Grade 3, number of patients: 0
  Heart failure ≥Grade 3, number of patients: 0
  Hepatic failure ≥Grade 3, number of patients: 0
  Hepatobiliary disorders ≥Grade 3, number of patients: 0
  Hypocalcemia ≥Grade 3, number of patients: 0
  Hypoglycemia ≥Grade 3, number of patients: 0
  Hypokalemia ≥Grade 3, number of patients: 0
  Hyponatremia ≥Grade 3, number of patients: 0
  Hypotension ≥Grade 3, number of patients: 0
  Hypovolemia ≥Grade 3, number of patients: 0
  Hypoxia ≥Grade 3, number of patients: 0
  Investigations ≥Grade 3, number of patients: 0
  Leukocytosis ≥Grade 3, number of patients: 0
  Metabolism and nutritional disorders ≥Grade 3, number of patients: 0
  Multi-organ failure ≥Grade 3, number of patients: 0
  Musculoskeletal and connective tissue disorders ≥Grade 3, number of patients: 0
  Neoplasms benign, malignant, and unspecified (incl. cysts and polyps) ≥Grade 3, number of patients: 1
  Patients with AEs ≥Grade 3, number of patients: 1
  Penile Pain ≥Grade 3, number of patients: 0
  Platelet count decreased ≥Grade 3, number of patients: 0
  Pneumonia ≥Grade 3, number of patients: 0
  Psychiatric disorders ≥Grade 3, number of patients: 0
  Renal and urinary disorders ≥Grade 3, number of patients: 0
  Reproductive system and breast disorders ≥Grade 3, number of patients: 0
  Respiratory distress ≥Grade 3, number of patients: 0
  Respiratory failure ≥Grade 3, number of patients: 0
  Respiratory, thoracic, and mediastinal disorders ≥Grade 3, number of patients: 0
  Tumor lysis syndrome ≥Grade 3, number of patients: 0
  Vascular disorders ≥Grade 3, number of patients: 0
Monotherapy 90 mg/m^2 (n = 4)
  AML progression, number of patients: 2
  Abdominal Pain ≥Grade 3, number of patients: 0
  Acidosis ≥Grade 3, number of patients: 0
  Acute kidney injury ≥Grade 3, number of patients: 0
  Asthenia ≥Grade 3, number of patients: 1
  Back Pain ≥Grade 3, number of patients: 0
  Blood and lymphatic system disorders ≥Grade 3, number of patients: 1
  Cardiac disorders ≥Grade 3, number of patients: 0
  Cataract ≥Grade 3, number of patients: 0
  Dyspnea ≥Grade 3, number of patients: 1
  Extremity Lower Edema ≥Grade 3, number of patients: 0
  Eye disorders ≥Grade 3, number of patients: 0
  Febrile neutropenia ≥Grade 3, number of patients: 0
  Gastrointestinal disorders ≥Grade 3, number of patients: 0
  General disorders and administration site conditions ≥Grade 3, number of patients: 1
  Hallucinations ≥Grade 3, number of patients: 0
  Heart failure ≥Grade 3, number of patients: 0
  Hepatic failure ≥Grade 3, number of patients: 0
  Hepatobiliary disorders ≥Grade 3, number of patients: 0
  Hypocalcemia ≥Grade 3, number of patients: 1
  Hypoglycemia ≥Grade 3, number of patients: 0
  Hypokalemia ≥Grade 3, number of patients: 1
  Hyponatremia ≥Grade 3, number of patients: 1
  Hypotension ≥Grade 3, number of patients: 0
  Hypovolemia ≥Grade 3, number of patients: 0
  Hypoxia ≥Grade 3, number of patients: 0
  Investigations ≥Grade 3, number of patients: 1
  Leukocytosis ≥Grade 3, number of patients: 1
  Metabolism and nutritional disorders ≥Grade 3, number of patients: 3
  Multi-organ failure ≥Grade 3, number of patients: 0
  Musculoskeletal and connective tissue disorders ≥Grade 3, number of patients: 0
  Neoplasms benign, malignant, and unspecified (incl. cysts and polyps) ≥Grade 3, number of patients: 0
  Patients with AEs ≥Grade 3, number of patients: 4
  Penile Pain ≥Grade 3, number of patients: 0
  Platelet count decreased ≥Grade 3, number of patients: 1^a
  Pneumonia ≥Grade 3, number of patients: 2
  Psychiatric disorders ≥Grade 3, number of patients: 0
  Renal and urinary disorders ≥Grade 3, number of patients: 0
  Reproductive system and breast disorders ≥Grade 3, number of patients: 0
  Respiratory distress ≥Grade 3, number of patients: 0
  Respiratory failure ≥Grade 3, number of patients: 0
  Respiratory, thoracic, and mediastinal disorders ≥Grade 3, number of patients: 1
  Tumor lysis syndrome ≥Grade 3, number of patients: 0
  Vascular disorders ≥Grade 3, number of patients: 0
[1]
  Dose-limiting Toxicity (DLT): Coagulopathy: No
  Dose-limiting Toxicity (DLT): Confusion: No
  Dose-limiting Toxicity (DLT): Diarrhea: No
  Dose-limiting Toxicity (DLT): Edema (limbs): No
  Dose-limiting Toxicity (DLT): Fever (pyrexia): No
  Dose-limiting Toxicity (DLT): Hyperkalemia: No
  Dose-limiting Toxicity (DLT): Hypocalcemia: No
  Dose-limiting Toxicity (DLT): Hypokalemia: No
  Dose-limiting Toxicity (DLT): Mucositis: No and Yes ^a
  Dose-limiting Toxicity (DLT): Multi-organ failure: No
  Dose-limiting Toxicity (DLT): Nausea: No
  Dose-limiting Toxicity (DLT): Pain: No
  Dose-limiting Toxicity (DLT): Pain in extremity: No
  Dose-limiting Toxicity (DLT): Palmar-plantar erythrodysesthesia (hand and foot) syndrome: Yes ^a
  Dose-limiting Toxicity (DLT): Pruritus: No
  Grade: Coagulopathy (related to study drug): 1
  Grade: Confusion: 1
  Grade: Diarrhea: 1
  Grade: Edema (limbs): 2
  Grade: Fever (pyrexia): 1
  Grade: Hyperkalemia: 2
  Grade: Hypokalemia: 3
  Grade: Mucositis: 2 and 4
  Grade: Multi-organ failure: 5
  Grade: Nausea: 2
  Grade: Pain: 2
  Grade: Pain in extremity: 2
  Grade: Palmar-plantar erythrodysesthesia (hand and foot) syndrome: 3
  Grade: Pruritus: 1
[2]
  Dose-limiting Toxicity (DLT): Blood creatinine increased: No
  Grade: Blood creatinine increased: 2
